# From article PMC8748916, “Microbial enzymes induce colitis by reactivating triclosan in the mouse gastrointestinal tract” (Nature Communications, 2022)
# “And” between values parts separate entries of the source, which are not always exact repeats. Equal entries are not always repeated.
# Experiments:
# [1] = TCS colonic metabolism in conventional vs germ-free Swiss Webster mice; assay type: in vivo; conditions: 6 h after oral gavage of 8 mg/kg TCS, individual mice
# [2] = LC-MS/MS profiling of TCS metabolism in mice (TCS via diet for 4 weeks); conditions: for concentration of free TCS in the colon digesta: mean; for concentration of TCS, TCS-G, TCS-Sulfate: individual mice
# [3] = Target engagement: GUSi in colon tissue and TCS to TCS-G ratio in colon digesta by LC-MS/MS; assay type: in vivo, mice; conditions: TCS-treated mice, no GUSi, individual mice
# Description: (§1) After another 3 weeks, the mice were stimulated with 2% DSS (molecular weight = 36–50 KDa, MP Biomedicals, Solon, OH) in drinking water for 6 days to induce colitis. At end of the experiment, the mice were sacrificed for analysis.
# Fig. S15. Orally dosed GUSi reaches the mouse colon and suppresses conversion of TCS -G to TCS. a.
# mice were stimulated with DSS to induce colitis. The final GUSi was dosed on day 25 and mice were sacrificed
# for analysis on day 27. b. GUSi is detected in the mouse colon 2 days after the final dose of the inhibitor. c.
# GUSi treatment reduces the ratio of TCS to TCS-G in colon digesta.
# per group. NA: no TCS or TCS-G detected.
# [4] = Antibiotic suppression of gut microbiota: kinetics of TCS colonic metabolism after one-time oral gavage; conditions: within the 24-h period; 8 mg/kg TCS oral gavage
# [5] = Antibiotic suppression of gut microbiota: TCS colonic metabolism in mice (80 ppm TCS diet, 4 weeks); assay type: in vivo; conditions: 80 ppm TCS via diet 4 weeks; antibiotic cocktail vs none
# From the text: This antibiotic composition was used in previous studies by others[20],[21] and us[22],[23]. […] After another 4 weeks, the mice were sacrificed, and their tissues were collected for LC-MS/MS analysis.
# [6] = system: DSS-induced colitis; experiment: DSS-induced colitis in mice: TCS with or without GUSi (colon length, histology, FACS, qRT-PCR); assay type: in vivo
# From the text: as §1
# Total RNA of colon tissues and MC38 cells were isolated using Trizol reagent (Ambion) according to the manufacturer’s instruction. RNA was reverse transcribed into cDNA using the High Capacity cDNA Reverse Transcription kit (Applied Biosystem) according to the manufacturer’s instructions. In all, 20 μL PCR reactions were prepared using the Maxima SYBR Green Master Mix (Thermo Fisher Scientific), and qPCR was carried out using a DNA Engine Opticon System (Bio-Rad Laboratories). Mouse-specific primer sequences (Thermo Fisher Scientific) used to detect inflammatory biomarkers are listed in Supplementary Table S6. Gapdh expression was used as an internal control.
# Distal colon tissues were dissected, washed with cold PBS, and digested with Hank’s balanced salt solution (HBSS, Lonza) supplemented with 1 mM dithiothreitol (DTT) and 5 mM EDTA at 4 °C (colon […] cells). The released cells were stained with FITC-conjugated anti-mouse CD45 (BioLegend, Clone: 30-F11), PerCP/Cy5.5-conjugated anti-mouse F4/80 (BioLegend, Clone: BM8), and PE/Cy7-conjugated anti-mouse Ly-6G/Ly-6C (GR-1) (BioLegend, Clone: RB6-8C5) with a 1:100 diluted solution. Cells were stained with Zombie Violet^TM dye (Zombie Violet^TM Fixable Viability Kit; BioLegend) according to the manufacturer’s instructions to exclude dead cells. Gating and cell identification strategies are as follows: briefly, cell doublets and clumps were eliminated using FSC-A gating and debris was eliminated using FSC-A vs SSC-A. Dead cells were gated out using Zombie Violet™ dye. Flow cytometry data were acquired on a BD LSR Fortessa^TMcell analyzer (Becton Dickinson, Franklin Lakes, NJ) and analyzed using FlowJo software (FlowJo, LLC). Gating strategies used for the identification of major immune cell populations are shown in Supplementary Fig. S17.
# The dissected colon tissues were fixed in 10% neutral buffered formalin (Thermo Fisher Scientific) for 48 h. After dehydration, the tissues were embedded in paraffin and sliced ([…]) by Rotary Microtome (Thermo Fisher Scientific). The slices were dewaxed in serial xylene and rehydrated through ethanol solutions, stained with hematoxylin and eosin (Sigma-Aldrich), and images were obtained under 200× magnification (BZ-X700 microscope, Keyence, Itasca, IL). The histologic scores were evaluated by a blinded observer according to the following measures: crypt architecture, degree of inflammatory cell infiltration, muscle thickening, goblet cell depletion, and crypt abscess. The histologic damage score is the sum of each individual score.
# [7] = LC-MS/MS of TCS and its metabolites in human stool and urine after use of TCS-containing personal care products; assay type: in vivo; conditions: for TCS metabolites in human stool / TCS metabolites in human urine: Treatment TCS, individual subjects;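 for Profile in stool (%): molar share of summed TCS plus TCS-G plus TCS-sulfate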;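 for Profile in urine (%): molar share of summed TCS plus TCS-G plus TCS-sulfate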;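 for average molar concentration ratio: molar share of summed TCS plus TCS-G plus TCS-sulfate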
# From the text: To broaden our understanding of TCS metabolic profiles in the gut, we next analyzed TCS metabolism in human subjects. We utilized urine and stool samples from a previous study in which the recruited human subjects were first subjected to a washout period (no usage of TCS-containing products), then were randomly assigned to two groups that used personal care products like toothpaste with or without TCS for up to four months (see the scheme of the experiment in Fig. 1c)[15]. Previous data had established that humans are primarily exposed to TCS via toothpaste that provides a direct oral route to the gastrointestinal tract[16],[17].
# [8] = 80 ppm TCS via diet vs vehicle, DSS-induced colitis, without GUSi
# [9] = DSS colitis mice, FACS, individual animals, Fig.5d
# [10] = DSS colitis mice, gene expression, individual animals, Fig.5e
# [11] = treatment time 0 months (after washout)
# [12] = human stool, TCS-exposed subjects
# [13] = human urine, TCS-exposed subjects
smiles,measurement,setting,value
"Oc1cc(Cl)ccc1Oc1ccc(Cl)cc1Cl [TCS, Triclosan]","tcs, tcs-G in colon digesta",[1]; CONV Swiss Webster mice,35.08 pmol/mg and 44.23 pmol/mg and 53.2 pmol/mg and 70.03 pmol/mg and 36.57 pmol/mg and 25.88 pmol/mg and 61.48 pmol/mg and 14.87 pmol/mg
same,"tcs, tcs-G in colon digesta",[1]; GF Swiss Webster mice,1.71 pmol/mg and 1.97 pmol/mg and 2.79 pmol/mg and 1.05 pmol/mg and 1.69 pmol/mg
same,concentration of free TCS in the colon digesta,[2]; 1 ppm TCS in diet 4 weeks,1.5 pmol/mg tissue
same,concentration of free TCS in the colon digesta,[2]; 10 ppm TCS in diet 4 weeks,14.7 pmol/mg tissue
same,concentration of free TCS in the colon digesta,[2]; 80 ppm TCS in diet 4 weeks,92.2 pmol/mg tissue
same,"concentration of TCS, TCS-G, TCS-Sulfate","[2]; Cecum (digesta), 80 ppm TCS via diet 4 weeks",109.26 pmol/mg and 94.56 pmol/mg and 76.97 pmol/mg
same,"concentration of TCS, TCS-G, TCS-Sulfate","[2]; Feces, 10 ppm TCS in diet 4 weeks",22.61 pmol/mg and 75.8 pmol/mg
same,"concentration of TCS, TCS-G, TCS-Sulfate","[2]; Feces, 80 ppm TCS in diet 4 weeks",290.88 pmol/mg and 142.03 pmol/mg
same,"concentration of TCS, TCS-G, TCS-Sulfate","[2]; Heart, 80 ppm TCS via diet 4 weeks",0.98 pmol/mg and 0.71 pmol/mg and 0.63 pmol/mg
same,"concentration of TCS, TCS-G, TCS-Sulfate","[2]; SI 1st section (digesta), 80 ppm TCS via diet 4 weeks",15.09 pmol/mg and 9.94 pmol/mg and 15.65 pmol/mg and 19.61 pmol/mg
same,"concentration of TCS, TCS-G, TCS-Sulfate","[2]; SI 2nd section (digesta), 80 ppm TCS via diet 4 weeks",19.75 pmol/mg and 18.37 pmol/mg and 9.51 pmol/mg and 14.12 pmol/mg and 15.69 pmol/mg and 13.92 pmol/mg and 18.94 pmol/mg and 9.21 pmol/mg and 13.42 pmol/mg and 3.48 pmol/mg
same,"concentration of TCS, TCS-G, TCS-Sulfate","[2]; SI 3rd section (digesta), 80 ppm TCS via diet 4 weeks",29.24 pmol/mg and 24.80 pmol/mg and 7.10 pmol/mg and 13.01 pmol/mg and 17.21 pmol/mg and 23.02 pmol/mg and 19.18 pmol/mg and 15.52 pmol/mg and 17.98 pmol/mg and 27.55 pmol/mg
same,"concentration of TCS, TCS-G, TCS-Sulfate","[2]; SI 4th section (digesta), 80 ppm TCS via diet 4 weeks",31.18 pmol/mg and 38.07 pmol/mg and 17.93 pmol/mg and 37.99 pmol/mg and 55.42 pmol/mg and 35.20 pmol/mg and 31.30 pmol/mg and 21.74 pmol/mg and 18.77 pmol/mg and 46.26 pmol/mg
same,share of TCS metabolites found,"[2]; digesta of the 4th section of the mouse small intestine, 80 ppm TCS via diet 4 weeks",36.9%
same,share of TCS metabolites found,"[2]; fecal content, 80 ppm TCS via diet 4 weeks",99.1%
same,share of detected TCS species present as free TCS,"[2]; gut sections (colon digesta, cecum digesta, feces), 1, 10 and 80 ppm TCS via diet 4 weeks",94-100%
same,TCS/TCSG in colon digesta,[3],69.2572 and 105.161 and 114.057 and 134.536 and 118.012 and 116.121 and 236.945 and 380.254 and 130.474 and 139.078
same,reduction of AUC in colon digesta by antibiotic treatment,[4],~ 40%
same,change of concentration in the fecal content by antibiotic treatment,[5],significantly reduced
same,colon length,[6]; [8],reduced
same,"colonic infiltration of immune cells (CD45+ leukocytes, CD45+ F4/80+ macrophages, CD45+ Gr1+ neutrophils)",[6]; [8],enhanced
same,crypt damage,[6]; [8],more severe
same,"expression of pro-inflammatory genes (Tnf-a, Mcp-1, Il-6, Il-17, Il-23) in the colon",[6]; [8],increased
same,cd45+(%),[6]; [9],13.9% and 7.52% and 6.6% and 9.17% and 14.3% and 13.5% and 15.4%
same,f4/80+ (%),[6]; [9],6.98% and 7.38% and 21.2% and 6.4% and 16.3% and 14.9% and 17.1%
same,gr-1+ (%),[6]; [9],6.98% and 5.74% and 9.62% and 14.5% and 6.12% and 11.4% and 10%
same,Il-6,[6]; [10],2.766 and 2.25 and 1.456 and 1.055 and 1.808 and 1.047
same,Il-17,[6]; [10],3.654 and 3.3461 and 1.6638 and 1.675 and 2.194 and 1.456 and 1.44 and 2.099
same,Il-23,[6]; [10],1.246 and 3.908 and 1.924 and 1.869 and 2.972 and 1.28 and 1.3835 and 2.162
same,Mcp1,[6]; [10],1.522 and 3.593 and 1.038 and 1.619 and 1.9672 and 1.4511
same,Tnf-α,[6]; [10],18.081 and 1.569 and 15.9712 and 7.287 and 5.139 and 4.495 and 3.411
same,HE,"[6]; DSS colitis mice, histology score, individual animals, Fig.5c",5 and 10 and 8 and 7 and 9
same,colon length (cm),"[6]; DSS colitis mice, individual animals, Fig.5b",5.8 cm and 7.1 cm and 7 cm and 6.3 cm and 6.4 cm and 5.3 cm
same,Profile in urine (%),"[7]; TCS-exposed human subjects, n=7 urine samples",1.57%
same,Profile in stool (%),"[7]; TCS-exposed human subjects, n=23 stool samples",99.16%
same,TCS metabolites in human stool,[7]; [11],< LOD and 12.62 pmol/ g stool and 10.84 pmol/ g stool and 388.08 pmol/ g stool and 57.90 pmol/ g stool
same,TCS metabolites in human urine,[7]; [11],< LOD
same,TCS metabolites in human stool,[7]; treatment time 1 month,1094.80 pmol/ g stool and 225.14 pmol/ g stool and 1049.03 pmol/ g stool and 626.33 pmol/ g stool and 215.36 pmol/ g stool and 317.47 pmol/ g stool
same,TCS metabolites in human urine,[7]; treatment time 1 month,< LOD
same,TCS metabolites in human stool,[7]; treatment time 2 months,372.82 pmol/ g stool and 713.18 pmol/ g stool and 245.09 pmol/ g stool and 96.24 pmol/ g stool and 905.85 pmol/ g stool
same,TCS metabolites in human urine,[7]; treatment time 2 months,8.55 nM urine
same,TCS metabolites in human stool,[7]; treatment time 3 months,515.81 pmol/ g stool and 334.49 pmol/ g stool and 515.22 pmol/ g stool and 400.99 pmol/ g stool and 445.98 pmol/ g stool and 105.82 pmol/ g stool
same,TCS metabolites in human urine,[7]; treatment time 3 months,< LOD
same,TCS metabolites in human stool,[7]; treatment time 4 months,633.76 pmol/ g stool and 67.29 pmol/ g stool and 968.25 pmol/ g stool and 633.96 pmol/ g stool and 135.75 pmol/ g stool and 295.56 pmol/ g stool
same,TCS metabolites in human urine,[7]; treatment time 4 months,3.06 nM urine and 6.42 nM urine and 11.23 nM urine and 5.52 nM urine
same,average molar concentration ratio,[7]; [12],99.2%
same,concentration of free TCS measured in stool (highest),[7]; [12],≤ 1 pmol/mg tissue
same,"concentration of free TCS measured in stool (highest), equated",[7]; [12],~ 1 µM
same,TCS concentrations in urine,[7]; [13],low-nM range
same,average molar concentration ratio,[7]; [13],1.6%
